Data on 1 compound can be found in patent US4987131A, “4H-triazolo[4,3-a][1,4]benzodiazepines” (Roussel Uclaf, priority 1985, dated 1991).

Structures are written as SMILES.

The target in experiment [1] is T1, cyclo-oxygenase contained in a microsomal preparation of seminal vesicles of a bull (Bos taurus, UniProt O62664).
T1 construct: cyclo-oxygenase contained in a microsomal preparation of seminal vesicles of a bull; from tissue; host or cells: bull seminal vesicles, microsomal preparation
T1 sequence (O62664 25-600): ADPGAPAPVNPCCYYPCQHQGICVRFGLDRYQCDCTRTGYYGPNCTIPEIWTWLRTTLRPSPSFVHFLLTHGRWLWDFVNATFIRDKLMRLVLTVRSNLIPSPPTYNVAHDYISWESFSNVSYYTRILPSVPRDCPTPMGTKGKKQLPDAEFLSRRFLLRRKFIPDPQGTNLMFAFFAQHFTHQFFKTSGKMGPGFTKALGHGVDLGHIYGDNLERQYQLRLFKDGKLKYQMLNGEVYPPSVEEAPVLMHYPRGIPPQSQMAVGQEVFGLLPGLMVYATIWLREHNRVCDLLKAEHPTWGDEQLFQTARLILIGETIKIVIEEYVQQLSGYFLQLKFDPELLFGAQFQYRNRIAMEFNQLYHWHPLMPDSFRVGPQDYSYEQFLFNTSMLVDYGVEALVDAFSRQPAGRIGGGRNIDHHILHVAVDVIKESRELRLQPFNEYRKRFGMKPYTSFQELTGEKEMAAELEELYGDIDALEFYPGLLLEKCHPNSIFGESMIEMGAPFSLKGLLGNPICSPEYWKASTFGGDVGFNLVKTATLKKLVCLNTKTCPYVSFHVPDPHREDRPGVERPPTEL
The experiment is described as follows: Action on biosynthesis of prostaglandins in vitro. It is filed as biochemical. The following applies: arachidonic acid 15×10^-6 M, incubated 30 minutes at 37° C., radioimmuno test; read-out: CI50, inhibiting activity calculated on the sum of PGE2 and PGF2 alpha. On the procedure:
A. Action on biosynthesis of prostaglandins in vitro.
Arachidonic acid is converted into prostaglandins (PGs) of series 2 by a cyclo-oxygenase contained in a microsomal preparation of seminal vesicles of a bull carried out according to the Tagekuchi et al method [Mechanism of prostaglandin biosynthesis. I characterization and essay of bovine prostaglandin synthetase. Biochemistry, 1971, 10, 2372]. The precursor, at […] of 15×10^-6 M, was incubated for 30 minutes at 37° C. in the presence of a fixed concentration in proteins of the preparation of seminal vesicles and of the product of Example 1. After blocking the reaction by immersion in boiling water for one minute, then centrifuging, the prostaglandins were evaluated by radioimmuno test inspired by that of Dray et al [Radioimmunoessay of prostaglandins F, E1 and E2 in human plasma. European J. Clin. Invest., 1975 5, 311]. This enabled the PGE2 and PGF2 alpha to be evaluated specifically and the inhibiting activity of the product (CI50) is calculated on the sum of these two prostaglandins. The CI50 found was 2×10^ -6 M.

Experiment [2] relates to stretchings induced by acetic acid in mice. The experiment is described as follows: Analgesic activity: stretchings induced by acetic acid. The conditions noted are these: Mus musculus, po, 0.25 h, orally half an hour before i.p. acetic acid 100 mg/kg, observation 15 minutes, read-out: DA50, dose giving a decrease of 50% in the number of stretchings. Type of experiment: in vivo. On the procedure: B. Study of analgesic activity
The test used was stretchings induced by acetic acid described by R. Koster et al [Fed. Proc. 1959, 1B 412] according to which the intraperitoneal injection of acetic acid induces in mice repeated stretchings and torsional movements which can persist for more than 6 hours. Analgesics prevent or decrease this syndrome which can considered as the externalization of a diffuse abdominal pain. The acetic acid was administered at a dose of 100 mg/kg or 1 ml of a 1% aqueous solution per 100 g of body weight and the compound of Example 1 was orally administered half an hour before the injection of acetic acid, the mice having been without food for 7 hours. The stretchings were observed and counted for each mouse for a period of observation of 15 minutes and the results were expressed as active dose 50 which is the dose which enabled a decrease of 50% to be obtained in the number of stretchings in comparison with the control animals. The DA50 found was 4 mg/kg.

The test system of experiment [3] is arthritis induced by carrageenin in rats. The experiment is described as follows: Anti-inflammatory activity: arthritis induced by carrageenin. It is filed as in vivo. The following applies: Rattus norvegicus, po; male rats, orally, simultaneously with carrageenin in the tibio-tarsal articulation, paw volume; read-out: DA50, dose giving a decrease in the oedema of 50%. The procedure: C. Anti-inflammatory activity was determined by the test for arthritis induced by carrageenin in rats and 0.5 ml of a sterile suspension at 1% of carrageenin was administered in the tibio-tarsal articulation of a back paw in male rats weighing from 130 to 150 g. Simultaneously, the product of Example 1 was orally administered in a suspension of carboxymethylcellulose at 0.25% and of Tween at 0.02%. The volume of the paw was measured before the administration, then 2 hours, 4 hours, 6 hours, 8 hours and 24 hours afterwards. The intensity of the inflammation was at its highest 4 to 6 hours after the injection of carrageenin and the difference in volume of the paws of the treated animals and the control animals was evidence of the anti-inflammatory action of the medicament. The DA50 was determined, which was the dose which enabled a decrease in the oedema of 50% to be obtained.

As for `COc1ccc(-c2nnc3n2-c2ccccc2C(C)=NC3C)cc1` (stereo not drawn) [Example 1, 4,6-dimethyl-1-(4-methoxyphenyl)-4H-1,2,4-triazolo[4,3-a][1,4]benzodiazepine], the IC50 in experiment [1] is 2000 nM. The ED50 in experiment [2] was 4 mg/kg; in experiment [3] it was 50 mg/kg.
